Data taken from paper PMC11567856, “A novel peptide‐based tau aggregation inhibitor as a potential therapeutic for Alzheimer's disease and other tauopathies” (Alzheimer's & Dementia, 2024).
Where a SMILES comes first, the peptide text is derived from it.

How the values were obtained:
[1] = ThT fluorescence, self-assembly of peptide inhibitors without Tau; assay type: physicochemical; conditions: ThT end-point 24 h, 37°C; 20 µM peptide without Tau, 5 µM heparin, 30 mM Tris, 1 mM DTT, 15 µM ThT, pH 7.4; triplicate
Experimental: (§1) Fluorescence was measured (λex = 442 nm, λem = 483 nm), and data were normalized. […] The addition of inhibitor to the growth phase was controlled by adding an equivalent volume of buffer alone.
(§2) Experiments were conducted in triplicate and error bars were reported as standard deviation. Statistical analysis: p > 0.05, *p ≤ 0.05, **p ≤ 0.01, ***p ≤ 0.001.

[2] = target: T1, Tau^Δ1‐250 (Homo sapiens, UniProt P10636); test: ThT fluorescence, heparin-induced aggregation of Tau^Δ1‐250; assay type: biochemical; conditions: 5 µM heparin, pH 7.4, triplicate; for effect on Tau^Δ1‐250 aggregation (in words): ThT end-point 24 h, 20 µM Tau^Δ1‐250, 20 µM peptide
T1 construct: Tau^Δ1‐250 (an aggregate prone truncated version of full‐length Tau); made in house; host or cells: E. coli BL21(DE3)
T1 sequence (P10636 568-758, stated change not applied): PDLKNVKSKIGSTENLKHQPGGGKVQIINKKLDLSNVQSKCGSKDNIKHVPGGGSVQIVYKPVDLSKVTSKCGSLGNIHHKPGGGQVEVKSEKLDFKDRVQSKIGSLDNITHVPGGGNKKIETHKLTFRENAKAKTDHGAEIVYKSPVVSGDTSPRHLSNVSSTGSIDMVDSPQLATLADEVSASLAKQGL
Experimental: as §1, §2

[3] = target: T2, Tau^2N4R (Homo sapiens, UniProt P10636); test: ThT fluorescence end-point, heparin-induced aggregation of Tau^2N4R; assay type: biochemical; conditions: ThT end-point 216 h (9 days); Tau^2N4R, 20 µM peptide, 10 µM heparin, pH 7.4
T2 construct: and full‐length Tau (Tau^2N4R); made in house; host or cells: E. coli BL21
T2 sequence (P10636 1-441 isoform P10636-8): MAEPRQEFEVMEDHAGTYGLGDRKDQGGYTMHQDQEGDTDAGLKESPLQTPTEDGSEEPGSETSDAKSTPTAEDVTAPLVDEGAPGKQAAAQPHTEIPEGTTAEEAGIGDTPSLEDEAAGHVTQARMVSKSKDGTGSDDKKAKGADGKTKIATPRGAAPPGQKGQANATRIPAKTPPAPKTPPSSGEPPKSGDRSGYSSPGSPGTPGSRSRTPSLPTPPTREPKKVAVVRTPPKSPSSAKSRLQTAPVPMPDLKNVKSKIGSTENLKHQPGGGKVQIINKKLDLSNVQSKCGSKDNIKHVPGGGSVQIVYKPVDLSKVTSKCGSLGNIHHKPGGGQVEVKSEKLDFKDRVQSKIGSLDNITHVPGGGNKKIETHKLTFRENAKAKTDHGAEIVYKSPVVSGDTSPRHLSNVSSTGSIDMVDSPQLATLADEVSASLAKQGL
Experimental: as §1
FIGURE 3 Lead peptide RI‐AG03 dose‐response and target specificity. […] (C) Concentration‐dependent inhibition of by Tau^Δ1‐250 by RI‐AG03. […] (E) Concentration‐dependent inhibition of by Tau^2N4R by RI‐AG03. […] (F) log10 scatter graph of Tau^2N4R inhibition by RI‐AG03 employing a curve fitting algorithm to calculate the IC50 at 5 µM. Experiments were conducted in triplicate and error bars were reported as standard deviation. One factor repeated measures ANOVA + Tukey post hoc statistical analysis: p > 0.05, *p ≤ 0.05, **p ≤ 0.01, ***p ≤ 0.001.

[4] = tested on: Tau repeat domain (RD) with the P301S mutation fused to mCer and mClo, HEK293 biosensor cells; test: Tau fibril seeding in FRET Tau biosensor cells; assay type: cell-based, human; conditions: biosensor cells, fibrils preincubated with 0–500 µM peptide; Figure 5C
Experimental: Tau biosensor cells culture: RD P301S Tau biosensor cells have been previously described,[45] and in this case v2L cells were used. Cells were cultured in 10 cm dishes containing Dulbecco's Modified Eagle's Medium (DMEM) (Gibco) enriched with 10% FBS (HyClone), 1% penicillin/streptomycin (Gibco), and 1% GlutaMAX (Gibco) at 37°C with 5% CO2 in a humidified incubator.
5 µM of tau fibrils (monomer equivalent) were incubated in PBS with peptide RI‐AG03 or scramble (0–500 µM) at 300 rpm agitation at 4°C for 16 h. The reaction was stopped by flash freezing in liquid nitrogen and stored at –20°C. Tau biosensor cells were plated at a density of 30,000 cells in 120 µL of media per well in a 96‐well plate. After 18 h, using Lipofectamine 2000 cells were transduced with 10 nM of treated fibrils that had been briefly sonicated for 30 s at 65 Amp (QSonica). Lipofectamine complexes were formed in 30 µL consisting of 14.17 µL Opti‐MEM (Gibco), 15 µL of treated fibrils diluted in PBS, and 0.83 µL lipofectamine 2000 (Invitrogen), bringing the total volume to 150 µL. […] Aggregates in Tau biosensors (10,000 minimum) were quantified by FRET flow cytometry in a LSRFortessa SORP (BD Biosciences). To detect the cerulean signal, cells were excited with a 405 nm laser, and fluorescence was captured at […]. For clover signal, cells were excited with a 488 nm laser and fluorescence was detected at 525/50 nm. Flow cytometry data were analyzed using a gating strategy previously described.[45], [47] The percentage of cells with positive FRET signal were quantified. Each condition was analyzed in quadruplicate. […]
To test RI‐AG03 efficacy in mammalian cells, we utilized a fluorescence resonance energy transfer (FRET) biosensor HEK293 cell line that stably expresses the Tau repeat domain (RD) with the P301S mutation fused to mCer and mClo. These cells[45] or prior generations[71] have been used extensively to quantify Tau seeding activity and measure intracellular aggregation.[71] […] Seeded aggregation was quantified by the percentage of FRET positivity.

SMILES	self-aggregation of peptide (in words) [1]	effect on Tau^Δ1‐250 aggregation (in words) [2]	other results
CC[C@H](C)[C@H](NC(=O)[C@H](CCC(N)=O)NC(=O)[C@@H](NC(=O)CNC(=O)[C@H](CCCNC(=N)N)NC(C)=O)C(C)C)C(=O)N[C@H](C(=O)N[C@@H](CC(N)=O)C(=O)N[C@@H](CCCCN)C(=O)NCC(=O)N[C@@H](CCCNC(=N)N)C(N)=O)[C@@H](C)CC [AG01] (Ac-RGVQIINKGR-NH2)	self‐aggregated	–	–
CC[C@H](C)[C@H](NC(=O)[C@H](CCC(N)=O)NC(=O)[C@@H](NC(=O)CNC(=O)[C@H](CCCNC(=N)N)NC(C)=O)C(C)C)C(=O)N[C@H](C(=O)N[C@@H](Cc1ccc(O)cc1)C(=O)N[C@@H](CCCCN)C(=O)N1CCC[C@H]1C(=O)NCC(=O)N[C@@H](CCCNC(=N)N)C(=O)N[C@@H](CCCNC(=N)N)C(=O)N[C@@H](CCCNC(=N)N)C(=O)N[C@@H](CCCNC(=N)N)C(N)=O)C(C)C [AG02PR5] (Ac-RGVQIVYKPGRRRR-NH2)	–	no additional benefit	–
CC[C@H](C)[C@H](NC(=O)[C@H](CCC(N)=O)NC(=O)[C@@H](NC(=O)CNC(=O)[C@H](CCCNC(=N)N)NC(C)=O)C(C)C)C(=O)N[C@H](C(=O)N[C@@H](Cc1ccc(O)cc1)C(=O)N[C@@H](CCCCN)C(=O)NCC(=O)N[C@@H](CCCNC(=N)N)C(=O)N[C@@H](Cc1ccc(O)cc1)C(=O)NCC(=O)N[C@@H](CCCNC(=N)N)C(=O)N[C@@H](CCCCN)C(=O)N[C@@H](CCCCN)C(=O)N[C@@H](CCCNC(=N)N)C(=O)N[C@@H](CCCNC(=N)N)C(=O)N[C@@H](CCC(N)=O)C(=O)N[C@@H](CCCNC(=N)N)C(=O)N[C@@H](CCCNC(=N)N)C(=O)N[C@@H](CCCNC(=N)N)C(N)=O)C(C)C [AG02TAT] (Ac-RGVQIVYKGRYGRKKRRQRRR-NH2)	greater self‐association into β‐sheets than all other AG02‐derived peptides	no significant additional inhibitory benefits	–
CC(=O)NCCCC[C@H](NC(=O)[C@H](CCC(N)=O)NC(=O)[C@@H](NC(=O)CNC(=O)[C@H](CCCNC(=N)N)NC(C)=O)C(C)C)C(=O)N[C@H](C(=O)N[C@@H](Cc1ccc(O)cc1)C(=O)N[C@@H](CCCCN)C(=O)NCC(=O)N[C@@H](CCCNC(=N)N)C(N)=O)C(C)C [AG02∆I] (Ac-RGVQK(Ac)VYKGR-NH2)	demonstrated self‐aggregation ability	–	–
CC[C@H](C)[C@H](NC(=O)[C@H](CCC(N)=O)NC(=O)[C@@H](NC(=O)CNC(=O)[C@H](CCCNC(=N)N)NC(C)=O)C(C)C)C(=O)N[C@@H](CCCCNC(C)=O)C(=O)N[C@@H](Cc1ccc(O)cc1)C(=O)N[C@@H](CCCCN)C(=O)NCC(=O)N[C@@H](CCCNC(=N)N)C(N)=O [AG02∆V] (Ac-RGVQIK(Ac)YKGR-NH2)	demonstrated a tendency for self‐aggregation, though to a smaller extent	–	–
CC[C@H](C)[C@H](NC(=O)[C@H](CCC(N)=O)NC(=O)[C@@H](NC(=O)CNC(=O)[C@H](CCCNC(=N)N)NC(C)=O)C(C)C)C(=O)N[C@@H](CCCCNC(C)=O)C(=O)N[C@@H](Cc1ccc(O)cc1)C(=O)N[C@@H](CCCCN)C(=O)N1CCC[C@H]1C(=O)NCC(=O)N[C@@H](CCCNC(=N)N)C(=O)N[C@@H](CCCNC(=N)N)C(=O)N[C@@H](CCCNC(=N)N)C(=O)N[C@@H](CCCNC(=N)N)C(=O)N[C@@H](CCCNC(=N)N)C(=O)N[C@@H](CCCNC(=N)N)C(=O)N[C@@H](CCCNC(=N)N)C(=O)N[C@@H](CCCNC(=N)N)C(N)=O [AG03] (Ac-RGVQIK(Ac)YKPGRRRRRRRR-NH2)	minimal self‐aggregation	–	inhibition of Tau^Δ1‐250 aggregation ([2]; ThT end-point after 24 h, 37°C, 20 µM Tau^Δ1‐250, 20 µM peptide (equimolar), 30 mM Tris, 1 mM DTT, 15 µM ThT): ~53%
CC[C@H](C)[C@H](NC(=O)[C@H](CCC(N)=O)NC(=O)[C@@H](NC(=O)CNC(=O)[C@H](CCCNC(=N)N)NC(=O)[C@H](CCCNC(=N)N)NC(=O)[C@H](CCCNC(=N)N)NC(=O)[C@H](CCCNC(=N)N)NC(C)=O)C(C)C)C(=O)N[C@H](C(=O)N[C@@H](Cc1ccc(O)cc1)C(=O)N[C@@H](CCCCN)C(=O)NCC(=O)N[C@@H](CCCNC(=N)N)C(N)=O)C(C)C [AGR502] (Ac-RRRRGVQIVYKGR-NH2)	–	did not affect peptide inhibitory action	–
CC(=O)N[C@@H](CCCNC(=N)N)C(=O)N[C@@H](CCCNC(=N)N)C(=O)N[C@@H](CCCNC(=N)N)C(=O)N[C@@H](CCCNC(=N)N)C(=O)N[C@@H](CCCNC(=N)N)C(=O)N[C@@H](CCCNC(=N)N)C(=O)N[C@@H](CCCNC(=N)N)C(=O)N[C@@H](CCCNC(=N)N)C(=O)N[C@@H](CCCNC(=N)N)C(N)=O [Poly‐arginine, reference compound]	–	no effect on aggregation	–
CC[C@H](C)[C@H](NC(=O)[C@H](CCCCN)NC(=O)[C@@H]1CCCN1C(=O)[C@H](CCC(N)=O)NC(=O)CNC(=O)[C@H](CCCNC(=N)N)NC(C)=O)C(=O)N[C@@H](CCCCNC(C)=O)C(=O)N[C@@H](Cc1ccc(O)cc1)C(=O)N[C@H](C(=O)NCC(=O)N[C@@H](CCCNC(=N)N)C(=O)N[C@@H](CCCNC(=N)N)C(=O)N[C@@H](CCCNC(=N)N)C(=O)N[C@@H](CCCNC(=N)N)C(=O)N[C@@H](CCCNC(=N)N)C(=O)N[C@@H](CCCNC(=N)N)C(=O)N[C@@H](CCCNC(=N)N)C(=O)N[C@@H](CCCNC(=N)N)C(N)=O)C(C)C [Scramble AG03, reference compound] (Ac-RGQPKIK(Ac)YVGRRRRRRRR-NH2)	–	no effect on aggregation	effect on Tau^2N4R aggregation (in words) [3]: did not suppress aggregation; concentrations with peptide‐induced toxicity (decrease in FRET positivity) [4]: above 100 µM
